Test results: patent publication US20100098689A1, “4-1 bb ligand in inflammatory diseases” (The Scripps Research Institute, priority 2006, published 2010)
Peptide text beside a SMILES is read from it. * marks the point of attachment. Cbz = O=C(OCc1ccccc1)*

Assays:
Type in all cases: cell-based, mouse
4-1BBL mRNA = experiment: Semiquantitative PCR of LPS-induced 4-1BBL mRNA in macrophages; conditions: for LPS-induced 4-1BBL mRNA / 4-1BBL expression: pretreated 1 hour with 20 μM sulfasalazine, 10 μM SB203580, 5 μM SP600125 or 10 μM PD98059, then LPS, MG-132 data not shown
Protocol: (A) Immunoblot of 4-1BBL in lysates from wild-type macrophages and macrophages deficient in TLR4 (TLR4 KO), MyD88 (MyD88 KO) or TRIF (TRIF KO), treated with LPS (time, above lanes). LPS induces quick expression of 4-1BBL in macrophages in a TLR4-, MyD88-, and TRIF-dependent manner. (B) Semiquantitative PCR of 4-1BBL mRNA in wild-type macrophages left without pretreatment (None) or pretreated for 1 hour with inhibitors of NF-κB (20 μM sulfasalazine), p38 (10 μM SB203580), Jnk (5 μM SP600125) or MEK (10 μM PD98059) and then treated with LPS (time, above lanes). […] (C) Real-time RCR analysis of the stability of LPS-induced 4-1BBL mRNA (1 hour of treatment; LPS) or ectopically expressed 4-1BBL mRNA at 18 hour after infection with recombinant adenovirus encoding 4-1BBL (Adv). Actinomycin D was used to inhibit transcription. Values are the percent remaining relative to the value at 0 hour (set at 100%). LPS-induced alterations in mRNA stability were also involved in LPS-induced 4-1BBL expression. (D) Flow cytometry of 4-1BBL expression by wild-type peritoneal macrophages treated with LPS (time, key): right, surface expression; left, total expression in cells made permeable with 0.1% saponin. LPS-induced 4-1BBL is located on the cell surface. (E) Immunofluorescence microscopy of wild-type peritoneal macrophages preincubated for 1 hour with (+) or without (−) brefeldin A (3 μg/mL), then treated with LPS (time, left margin) and immunostained with anti-4-1BBL. Original magnification, ×100. Brefeldin A blocks protein translocation to the cell surface by inhibiting its translocation from the endoplasmic reticulum to the Golgi apparatus. (F) Semiquantitative PCR of 4-1BBL and TNF mRNA in lysates of cells treated as described in E. Brefeldin A neither affected the LPS-induced increase in 4-1BBL mRNA nor influenced LPS-induced TNF mRNA after 1 hour, but did reduce TNF mRNA at 2, 4 and 6 hours. GAPDH (A,B,F): glyceraldehyde phosphate dehydrogenase (loading control). Data are representative of three independent experiments.
Semiquantitative PCR was performed as described by Kim et al., J. Exp. Med. 197:1441-52 (2003). For real-time PCR, 0.5 μg of total RNA were used to prepare cDNA using oligo(dT)12 as a primer. The SYBR green PCR Master Mix kit (Applied Biosystems) was used in the real-time PCR analysis.
To determine whether the newly synthesized 4-1BBL needs to be on the cell surface in order to regulate the expression of TNF, peritoneal macrophages were preincubated with or without brefeldin A (3 μg/mL) for 1 hour and were then treated with LPS for the indicated times. Immunostaining was performed using anti-4-1BBL antibodies. 4-1BBL and TNF mRNA were analyzed by semiquantitative PCR. GAPDH was used as control. Brefeldin A is a specific inhibitor that blocks protein translocation to the cell surface by inhibiting its translocation from the endoplasmic reticulum to the Golgi apparatus Klausner et al., J. Cell Biol. 116:1071-1080 (1992) (FIG. 7E).

TNF mRNA = experiment: Semiquantitative PCR of LPS-induced TNF mRNA in peritoneal macrophages; conditions: preincubated 1 hour with brefeldin A 3 μg/mL
Protocol: (A) Immunoblot of 4-1BBL in lysates from wild-type macrophages and macrophages deficient in TLR4 (TLR4 KO), MyD88 (MyD88 KO) or TRIF (TRIF KO), treated with LPS (time, above lanes). LPS induces quick expression of 4-1BBL in macrophages in a TLR4-, MyD88-, and TRIF-dependent manner. (B) Semiquantitative PCR of 4-1BBL mRNA in wild-type macrophages left without pretreatment (None) or pretreated for 1 hour with inhibitors of NF-κB (20 μM sulfasalazine), p38 (10 μM SB203580), Jnk (5 μM SP600125) or MEK (10 μM PD98059) and then treated with LPS (time, above lanes). […] (C) Real-time RCR analysis of the stability of LPS-induced 4-1BBL mRNA (1 hour of treatment; LPS) or ectopically expressed 4-1BBL mRNA at 18 hour after infection with recombinant adenovirus encoding 4-1BBL (Adv). Actinomycin D was used to inhibit transcription. Values are the percent remaining relative to the value at 0 hour (set at 100%). LPS-induced alterations in mRNA stability were also involved in LPS-induced 4-1BBL expression. […]
To determine whether the newly synthesized 4-1BBL needs to be on the cell surface in order to regulate the expression of TNF, peritoneal macrophages were preincubated with or without brefeldin A (3 μg/mL) for 1 hour and were then treated with LPS for the indicated times. […] 4-1BBL and TNF mRNA were analyzed by semiquantitative PCR. […]

wild-type macrophages = experiment: ELISA of TNF production by macrophages infected with adenovirus expressing 4-1BBL; conditions: inhibitor added 6 h after infection (20 μM sulfasalazine, 10 μM SB203580, 5 μM SP600125, 10 μM PD98059), analyzed 24 hour after infection
Protocol: FIG. 10A-I indicate that two sequential TLR4 complexes exist. (A) Immunoassay of wild-type macrophages treated with LPS (time, above lanes); total cell lysates (Lysates; top) or lysates immunoprecipitated with anti-TLR4, anti-MyD88 or anti-4-1BBL were analyzed by immunoblot with anti-4-1BBL, anti-TLR4 and/or anti-MyD88. Dashed outline, isotype antibody (negative control for immunoprecipitation); solid outlines, positive control for immunoblot of 4-1BBL or MyD88. In LPS-treated macrophages, the MyD88-TLR4 complex is responsible for the initial cellular responses, and the 4-1BBL-TLR4 complex is involved in sustaining TNF production. […] (C) 4-1BBL interacts with TRAF6, but not TRAF2. (D) Knockdown of TRAF6 impaired LPS, PolyI:C, and IL-1β induced cytokine production, but has no effect on TNF-induced IL-6 production. […]

SMILES	LPS-induced increase in 4-1BBL mRNA (4-1BBL mRNA; preincubated 1 hour with brefeldin A 3 μg/mL, then LPS)	LPS-induced TNF mRNA at 2, 4, and 6 hours (TNF mRNA; LPS 2, 4, 6 hours)	LPS-induced TNF mRNA after 1 hour (TNF mRNA; LPS 1 hour)	LPS-induced 4-1BBL mRNA / 4-1BBL expression (4-1BBL mRNA)	4-1BBL-mediated TNF production (wild-type macrophages)
C[C@H]1CCC/C=C/[C@@H]2C[C@H](O)C[C@H]2[C@H](O)/C=C/C(=O)O1 [Brefeldin A]	did not affect	did reduce	did not influence	–	–
CC(C)C[C@@H](C=O)NC(=O)[C@H](CC(C)C)NC(=O)[C@H](CC(C)C)NC(=O)OCc1ccccc1 [MG-132] (Cbz-Leu-Leu-Leu-aldehyde)	–	–	–	effectively inhibited	–
COc1cccc(-c2cc(=O)c3ccccc3o2)c1N [PD98059]	–	–	–	some inhibitory effects	reduced
C[S+]([O-])c1ccc(-c2nc(-c3ccncc3)c(-c3ccc(F)cc3)[nH]2)cc1 (stereo not drawn) [SB203580]	–	–	–	some inhibitory effects	reduced
O=C(O)c1cc(/N=N/c2ccc(S(=O)(=O)Nc3ccccn3)cc2)ccc1O [sulfasalazine]	–	–	–	effectively inhibited	–
